{"source": "patent US20120282646A1", "about": "“METHOD FOR ACTIVATING A NATURAL KILLER CELL BY ADJUSTING THE EXPRESSION OF THE SOCS2 GENE” (Korea Research Institute of Bioscience and Biotechnology, priority 2009, published 2012)", "type_in_all_cases": "cell-based, human", "key": {"NK-92 cells [1]": {"test_system": "NK-92 cells", "test": "Cytotoxicity of MAPK inhibitor-treated NK-92 cells against K562", "conditions": "NK-92 cells treated with 10 mM inhibitor; compared with ERK and p38 inhibitors"}, "Pyk2 [2]": {"test_system": "Pyk2", "test": "GST pull down of GST-SOCS2 and Flag-Pyk2 in 293T cells", "conditions": "MG132-containing medium vs general culture medium", "protocol": "The GST expression vector and pFlag-Pyk2, or pGST-SOCS2 and pFlag-Pyk2 were cotransformed into 293T cells using Lipofectamin 2000 (Invitrogen, U.S.A.). After 4 hr of transformation, the medium was replaced to a general culture medium or MG132 (proteasome inhibitor)-containing medium, and […], cells were lysed. The each cell lysate was allowed to react with glutathione-sepharose bead (GE Healthcare, U.S.A.) at 4° C. for 4 hr. Western blot analysis was performed by the same method in Example <2-1> using anti-Flag primary antibody (Santa Cruz, U.S.A.) or anti-GST primary antibody (Santa Cruz, U.S.A.)."}, "Pyk2 [3]": {"test_system": "Pyk2", "test": "Immunoprecipitation of Flag-Pyk2, GST-SOCS2 and HA-ubiquitin in 293T cells", "conditions": "MG132-containing medium vs general culture medium", "protocol": "In order to determine whether SOCS2 inhibits the proteasome-mediated Pyk2 degradation or not, the following experiment was carried out. First of all, pGST-SOCS2, pFlag-Pyk2, and HA-ubiquitin (AddGene) were cotransformed into 293T cells using Lipofectamin 2000. After 4 hr of transformation, the medium was replaced to a general culture medium or MG132 (proteasome inhibitor)-containing medium, and 24 hr later, cells were lysed. The each cell lysate was allowed to react with anti-Flag antibody or anti-GST antibody. The antigen-antibody complexes were precipitated by incubation at 4° C. for 1 day with G-protein-conjugated agarose (Roshe, Switzerland). The immunoprecipitated complexes were washed with 1×PBS. Western blot analysis was performed by the same method in Example <2-1> using anti-GST antibody, anti-Flag antibody, or anti-HA antibody (Santa Cruz, U.S.A.)."}, "NK-92 cells [4]": {"test_system": "NK-92 cells", "test": "socs2 mRNA expression by real time PCR in cytokine-treated NK-92 cells", "protocol": "NK cell differentiation is mediated by IL-15 (Interleukin 15) cytokine. To determine whether the SOCS2 upregulation following NK cell differentiation was induced by IL-15, the present inventors experimented on the IL-15-induced SOCS2 upregulation in mature NK cells. The experimented NK-92 human NK cells and primary NK cells live and proliferate in the condition where IL-15 exists. Accordingly, to measure the effect of IL-15, deprivation of IL-15 was carried out by culturing cells in a medium without IL-15 for 24 hr prior to IL-15 treatment, and then the medium was replaced with a medium containing 10 ng/mL IL-15 to make a cell differentiation condition. Real time PCR was carried out with NK-92 cells at 4, 8, 12, and 16th hr after the replacement of the medium using the same method in Example <3-1-1> to measure the amount of socs2 mRNA expression.\nSpecifically, each NK cell was collected and total RNA was extracted using Trizol Reagent (Invitrogen, U.S.A.). Then, 1 μg of the RNA was reverse transcribed into cDNA using reverse transcriptase superscript II (Invitrogen). […] Concurrently, using GAPDH (Glyceraldehyde-3-phosphate dehydrogenase) as a quantitative control, real time PCR was performed with GAPDH primer pair of Table 2. […]"}, "primary NK cells [5]": {"test_system": "primary NK cells", "test": "socs1, socs2, socs3 mRNA expression by real time PCR in IL-15-stimulated primary NK cells", "conditions": "IL-15 stimulation after deprivation", "protocol": "Deprivation and IL-15 stimulation was carried out with primary NK cells using the same method in Example <2-2>. The amounts of mRNA expression of socs1, socs2 and socs3 were measured by real time PCR. Primers in Table 1 and Table 3 were used.\nSpecifically, each NK cell was collected and total RNA was extracted using Trizol Reagent (Invitrogen, U.S.A.). Then, 1 μg of the RNA was reverse transcribed into cDNA using reverse transcriptase superscript II (Invitrogen). Using the cDNA as template, real time PCR was performed with the 2×SYBR Premix Ex Taq™ (TaKaRa, Japan) and SOCS2 primer pairs of Table 2 (Exicycler version 2, Bioneer, Republic of Korea). Concurrently, using GAPDH (Glyceraldehyde-3-phosphate dehydrogenase) as a quantitative control, real time PCR was performed with GAPDH primer pair of Table 2. The PCR condition was as follows: denaturation of 10 min at 95° C.; 40 cycles of […], 30 sec at 60° C., and 1 min at 72° C.; and extension of 8 min at 72° C. followed by cooling to room temperature. After analyzing real time PCR data by the comparative CT (2^−ΔΔCt) method which normalizes the amount of socs2 expression of each sample to the amount of GAPDH expression, the relative amount of SOCS2 expression in differentiated NK cells at each day to the amount of socs2 expression in primary NK cells was shown as a graph in FIG. 1(a)."}, "[6]": {"test_system": "NK-92 cells and primary NK cells", "test": "SOCS2 protein expression by Western blot after IL-15 stimulation", "conditions": "IL-15 stimulation after deprivation", "protocol": "Each NK cell was lysed in RIPA buffer (50 mM Tris-HCl, pH 7.4, 150 mM NaCl, 0.25% SDS, 1% NP-40, 1 mM EDTA, a protease inhibitor cocktail, and a phosphate inhibitor cocktail) and the concentration of protein present in the whole cell lysate was determined using BCA Protein Assay Kit (Pierce, U.S.A.). 30 μg of each protein sample was resolved using 10 or 12% SDS-PAGE gel and transferred to an Immobilon-P membrane (Millipore Corporation, U.S.A.). The membrane was blocked with 5% skim milk and treated with anti-SOCS2 antibody (Santa Cruz, U.S.A.) as a primary antibody for 1 day at 4° C. HRP-conjugated anti-rabbit secondary antibody (Santa Cruz, U.S.A.) was attached to the primary antibody-treated membrane, and then, Immobilon Western Chemiluminescent HRP Substrate (Milipore Corporation) was added thereto. The membrane was exposed to X-ray film. As quantitative control, the amount of expression of GAPDH was examined using anti-GAPDH primary antibody (Santa Cruz, U.S.A.) by the above method. […]"}, "NK-92 cells [7]": {"test_system": "NK-92 cells", "test": "Western blot of SOCS2 and p-Pyk2Tyr402 after IL-15 in NK-92 cells", "conditions": "IL-15 for 6, 12 or 24 hr", "protocol": "(§1) Each NK cell was lysed in RIPA buffer (50 mM Tris-HCl, pH 7.4, 150 mM NaCl, 0.25% SDS, 1% NP-40, 1 mM EDTA, a protease inhibitor cocktail, and a phosphate inhibitor cocktail) and the concentration of protein present in the whole cell lysate was determined using BCA Protein Assay Kit (Pierce, U.S.A.). 30 μg of each protein sample was resolved using 10 or 12% SDS-PAGE gel and transferred to an Immobilon-P membrane (Millipore Corporation, U.S.A.). The membrane was blocked with 5% skim milk and treated with anti-SOCS2 antibody (Santa Cruz, U.S.A.) as a primary antibody for 1 day at 4° C. HRP-conjugated anti-rabbit secondary antibody (Santa Cruz, U.S.A.) was attached to the primary antibody-treated membrane, and then, Immobilon Western Chemiluminescent HRP Substrate (Milipore Corporation) was added thereto. The membrane was exposed to X-ray film. As quantitative control, the amount of expression of GAPDH was examined using anti-GAPDH primary antibody (Santa Cruz, U.S.A.) by the above method.\nTo assess how SOCS2 which binds with p-Pyk2^Tyr402 in NK cells regulates Pyk2, the following experiment was carried out. With NK-92 cells cultured without or with IL-15 for 6, 12 or 24 hr using the same method in Example <2-2>, Western blot analysis was carried out using the same method in Example <2-1> with anti-SOCS2 antibody, anti-p-Pyk2^Tyr402 antibody, anti-Pyk2 antibody and anti-GAPDH antibody. […]"}, "primary NK cells [8]": {"test_system": "primary NK cells", "test": "Western blot of SOCS2 and p-Pyk2Tyr402 after IL-15 in primary NK cells", "conditions": "primary NK cells with or without IL-15", "protocol": "as §1\nNK cells cultured without or with IL-15, Western blot analysis was carried out using the same method in Example <2-1> with anti-SOCS2 antibody, anti-p-Pyk2^Tyr402 antibody, anti-Pyk2 antibody and anti-GAPDH antibody."}, "Pyk2 [9]": {"test_system": "Pyk2", "test": "Immunoprecipitation for ubiquitination of Pyk2 after IL-15 in NK-92 cells", "conditions": "NK-92 cells stimulated with IL-15, anti-Pyk2 immunoprecipitation", "protocol": "To determine whether the decrease in p-Pyk2^Tyr402 by SOCS2 expression, confirmed in Example <13> resulted from the ubiquitin-mediated proteasomal degradation of p-Pyk2^Tyr402 by increased SOCS2 by IL-15, the following experiment was carried out. NK-92 cells stimulated with IL-15 as in Example <2-2> were lysed and the cell lysates were allowed to react with anti-Pyk2 antibody. The antigen-antibody complexes were precipitated by incubation at 4° C. for 1 day with G-protein-conjugated agarose. The immunoprecipitated complexes were washed with 1×PBS. Western blot analysis was performed by the same method in Example <2-1> using anti-ubiquitin antibody (Santa Cruz, U.S.A.), anti-SOCS2 antibody, anti-p-Pyk2^Tyr402 antibody, anti-Pyk2 antibody, and anti-GAPDH antibody."}, "SOCS2": {"test_system": "SOCS2", "test": "SOCS2 protein knockdown by siRNA, Western blot", "conditions": "primary NK cells transduced with siRNA, IL-15 stimulation 16 hr", "protocol": "as §1\nIL-15 is an essential cytokine for NK cell differentiation. With SOCS2 expression inhibited, the present inventors measured the NK cell differentiation by IL-15 stimulation. […] Concurrently, β-actin expression was also observed by using anti-β-actin primary antibody (Santa Cruz, U.S.A.) as a quantitative control."}, "primary NK cells [10]": {"test_system": "primary NK cells", "test": "NK cell differentiation, CD-56 expression by FACS", "conditions": "primary NK cells transduced with siRNA, day 2, 3, 5, IL-15 stimulation", "protocol": "Also, to determine whether the inhibition of SOCS2 expression affected the NK cell differentiation or not, primary NK cells were transduced with siRNA and CD-56 expression was measured by performing FACS on the cells at 2, 3, and 5th day."}}, "note": "Where a SMILES comes first, the peptide text is derived from it. The star is where a group is joined. Cbz = O=C(OCc1ccccc1)*", "data": [{"compound": "Oc1c2ccccc2c2c3c(cccc13)N=N2", "note": "[JNK inhibitor, SP600125]", "values": [{"measurement": "cytotoxicity against the K562 cancer cell line", "setting": "NK-92 cells [1]", "result": "most significantly reduced"}]}, {"compound": "CC(C)C[C@@H](C=O)NC(=O)[C@H](CC(C)C)NC(=O)[C@H](CC(C)C)NC(=O)OCc1ccccc1", "note": "[MG132] (Cbz-Leu-Leu-Leu-aldehyde)", "values": [{"measurement": "Flag band (Flag-Pyk2) in GST pull down", "setting": "Pyk2 [2]", "result": "significantly large Flag band"}, {"measurement": "GST band and HA (ubiquitin) bands in anti-Flag immunoprecipitate", "setting": "Pyk2 [3]", "result": "significantly large GST band and more HA bands"}]}, {"compound": "IL-15: cytokine priming NK cell differentiation (Peprotech)", "values": [{"measurement": "SOCS2 expression (socs2 mRNA)", "setting": "NK-92 cells [4]; NK-92 cells deprived of IL-15 24 hr, then 10 ng/mL IL-15, 4, 8, 12, 16 hr", "result": "SOCS2 expression increased in NK-92 cells"}, {"measurement": "SOCS2 expression (mRNA), specificity among cytokines", "setting": "NK-92 cells [4]; deprived NK-92 cells, 30 ng/mL IL7, IL-12, IL-15, IL-18, IL-21 for 16 hr", "result": "SOCS2 expression was induced specifically by IL-15 stimulation"}, {"measurement": "mRNA expression of socs1, socs2 and socs3", "setting": "primary NK cells [5]", "result": "only socs2 mRNA expression among SOCS family members increased"}, {"measurement": "SOCS2 protein expression", "setting": "[6]", "result": "IL-15 stimulated SOCS2 expression was observed in both NK-92 cells and primary NK cells"}, {"measurement": "SOCS2 expression", "setting": "NK-92 cells [7]", "result": "increased in an IL-15 stimulation time-dependent manner"}, {"measurement": "phosphorylation of tyrosine 402 in Pyk2", "setting": "NK-92 cells [7]", "result": "decreased"}, {"measurement": "expression of SOCS2 and phosphorylation of Pyk2", "setting": "primary NK cells [8]", "result": "induced the expression of SOCS2 and the decrease in the phosphorylation of Pyk2"}, {"measurement": "phosphorylation of Pyk2", "setting": "Pyk2 [9]", "result": "phosphorylation of Pyk2 decreased"}, {"measurement": "ubiquitination of Pyk2", "setting": "Pyk2 [9]", "result": "ubiquitination of Pyk2 increased"}]}, {"compound": "SOCS2 siRNA: SOCS2 siRNA (Dharmacon, SEQ ID NO.12: 5′-CGACUACUAUGUUCAGAUG-3′) (listed as RNA, chemistry not given here)", "values": [{"measurement": "SOCS2 protein expression", "setting": "SOCS2", "result": "SOCS2 protein expression was inhibited"}, {"measurement": "CD-56 expression (NK cell differentiation)", "setting": "primary NK cells [10]", "result": "increased CD-56 expression similarly regardless of whether SOCS2 protein was expressed or not"}]}]}
